The subject of one data set is γ-H2A.X in H358 cells. The data set can be described thus: γ-H2A.X Western / double strand break repair assay. It counts as cell-based. Conditions: 18 hours post-start; low doses as in FIG. 3. The protocol:
Also shown are controls for no treatment (“c” minus 1a) or treatment with 1a only (“c” plus 1a). Each lane represents 60 μg protein. […] Each lane represents 60 μg protein.
To measure DSB repair, cells were incubated for 1 hour with 10 μM camptothecin to induce DSBs, followed by incubation in the presence or absence of 50 μM 1a. At fixed times, histones were prepared by extraction in 0.2M H2SO4 as described previously and 50 μg extract was analyzed by 12% SDS-PAGE followed Western analysis as described previously, using rabbit polyclonal anti-γ-H2A.X [phosphor ser 139] (Novus Biologicals, Littleton, Colo.) or anti-H3 (Upstate Biotechnology, Inc, Lake Placid, N.Y.). Band intensities were quantitated digitally. To study acetylation of γ-H2A.X, we carried out co-immunoprecipitation analysis using 50 μg extract protein in immunoprecipitation buffer (10 mM sodium phosphate pH 7, 0.15 M NaCl, 0.1% SDS, 1% NP40, 1% sodium deoxycholate, aprotinin, 1 mM PMSF, complete protease inhibitors (Roche) using immobilized anti-acetyl-lysine (Millipore, Temecula, Calif.) in the immunoprecipitation step. The immunoprecipitated material was then analyzed as for Western analysis using anti γ-H2A.X.

A further data set has as its system MCF7 breast cancer cells. To be noted: for effect as single agent on viability: 72 hr assay, DFMO 100 μM, 5FU 2 μM, doxorubicin 100 nM. As for the experimental part: Viability was measured 3 days after the start of treatment and is expressed as a percentage of control (untreated) cell viability.
Each point is average of triplicates. […]
The present inventors carried out 96-well viability assays as we have previously described (Saadatmandi et al, Cancer Gene Therapy (2002) 9:830-9), in which MCF7 breast cancer cells were plated at 3000 cells per well. After overnight attachment, triplicate wells were treated with increasing doses of inhibitor 1a. Control wells were left untreated. After 3 days, cell viability was measured by the MTS assay, which measures the bioconversion of an uncolored substrate to a colored formazan derivative, and is proportional to cell number.

The test system of data set [1] is MDA MB-435 breast cancer cells. As to the kind of experiment: 72 hr viability assay, MDA MB-435. The class given is cell-based. Conditions: 72 hr assay; DFMO 100 μM, 5FU 2 μM, doxorubicin 100 nM.
Data set [2] relates to H358 lung cancer cells. The class given is cell-based. As for the experimental part: (§1) Control cells were left untreated. […] Control cells were left untreated.
Cells were given fresh inhibitor on the first, second, and third days of treatment and viability was measured on the 4th day (i.e. 3 days post start of treatment). […]
(A) Structure of Spd-3a. (B) Western analysis of histone H3K9-acetylation and total histone H3, measured in control, untreated H358 lung cancer cells “C” or in H358 cells incubated 12 hours in the presence of 50 μM Spd-2a or Spd-3a. Each lane represents 60 μg cellular protein. (C) [3H]-thymidine incorporation (counts per minute) into DNA of H358 cells during a 6 hour pulse beginning at 42 hours post-start of treatment. Treatments were as follows (bars 1-6 left to right): (1) control: no treatment; (2) CPT alone: 5 nM 18 hours; (3) 3a alone: 50 μM; (4-6) 3a+CPT: CPT (5 nm, 18 hours)+3a at indicated dose. After 18 hours, CPT was removed and medium was replaced with fresh medium containing Spd-3a at the indicated dose. Each bar represents the average of triplicates. (D) 3-day 96-well viability assay of H358 cells grown in the presence of increasing amounts of Spd-2a or Spd-3a, with or without CPT (5 nM 18 hours). […] Each data point represents the average of three wells.
(§2) Date of exp: Jul. […] Date of exp: Sep.
(§3) Cells were plated in 96-well plates at 2000 cells per well and treated with the indicated doses of spd-3a. Cell viability was measured by the MTS assay 3 days later.
DLD-1 cells or H358 cells were plated in 96-well plates at 2000 cells per well and treated with the indicated doses of (A) spm-3 or (B) spm-2. (C) Cell viability was measured by the MTS assay 3 days later. Similar experiment using GT41 fibroblasts with spm2 or spm 3. Each assay point represents an average of duplicates. […]

Data set [3] deals with endogenous HATs associated with solubilized chromatin. Conditions: Bandyopadhyay et al, 2009; cited from earlier work.
The test system of data set [4] is H358 lung cancer cells. The data set can be described thus: [3H]-thymidine incorporation (DNA synthesis) assay in H358 cells. It counts as cell-based. To be noted: 5 nM alone (18 or 24 hours). As for the experimental part: (A) Structures of 1a, and the acetylated side chain of a lysine residue within the polypeptide chain of a protein targeted by the acetylating enzyme (R1 and R2 are the main chain elements on both sides of the lysyl residue). (B) [^3H]-thymidine incorporation into DNA of H358 cells pulsed for 6 hrs at three different time points after the addition of increasing concentrations of 1a, i.e., at 6-12 hrs (12 hr curve), at 18-24 hours (24 hr curve), or at 42-48 hrs (48 hr curve). Incorporation is represented as a percentage relative to control (untreated) cells. (C) Cell cycle analysis of propidium iodide-stained cells harvested at various times after addition of 50 μM 1a. % of cells in G1, S, and G2 represents the average of two independent profiles. (D) Western analysis of histone H3 lysine 9 acetylation, histone H3 lysine 56 acetylation, histone H3 lysine 9 methylation, and total histone H3, before “c” or at the indicated times after addition of 50 μM 1a. Each lane represents 60 μg cellular protein.
as §1
Cells were either labeled immediately before treatment (starting DNA synthesis rate), or subjected to the indicated treatments and then pulsed on successive days until day 4. DNA synthesis is represented as the percent of starting DNA synthesis rate. Viability was determined for each treatment condition 24 hours post-start of treatment by the trypan blue exclusion assay, with percentages of viable cells indicated to the right of the graph.
H358 cells (2,000/well) in 96-well plates were treated with 1, 10 or 50 μM of spd-1a, spd-2a, spd-3a, spm3, or spm2 for 12 hours. Triplicate wells of cells were pulsed 6 hours with 0.5 μCi [^3H]-thymidine (NEN, Boston Mass.) post-start of drug treatment, and harvested onto filter paper using a Brandel Harvester and subjected to scintillation counting. Untreated cells were pulsed from 0-6 hrs to establish the initial rate of incorporation.
Cells were plated in 96-well plates (2000 cells per well to insure conditions for exponential growth for untreated cells over the time course of the experiment) and exposed to the following treatments: 1a (50 μM); camptothecin (Sigma, St Louis, Mo. 5 nM, 18 hours); cisplatin (Platinol, obtained through local pharmacies, 2 μM, 1 hour 15 minutes), 5-fluorouracil (5FU, Adrucil™, obtained through local pharmacies, 2 μM, 1 hour 15 minutes), Taxotere (provided by the late Dr. Pierre Potier, 5 nM, 18 hours). UVC treatment (40 J/m^2) using a Stratalinker™, Stratagene, La Jolla, Calif.) was carried using medium lacking phenol red. At 0-6 hr, 18-24 hr (day 1), 42-48 hr […], 66-72 hr (day 3), and 90-96 hr (day 4) post-start of treatment, triplicate wells were incubated with 0.5 μCi [^3H]-thymidine (NEN, Boston Mass.), harvested onto filter paper, and subjected to scintillation counting. Trypan blue exclusion assays for cell membrane integrity were carried out as known in the art.
The present inventors used 96-well viability assays as described in Saadatmandi et al (Cancer Gene Therapy (2002) 9:[…]) to examine the effect of 1a on DNA synthesis in H358 cells, as well as the combined effects of 1a and chemotherapeutic agents. H358 cells were plated in 96-well plates at 3000 cells per well. […]
For orientation: Incorporation of labelled thymidine or its analogues reports DNA synthesis.

Data set [5] has as its system GT41F human skin fibroblast cells. The data set can be described thus: [3H]-thymidine incorporation in normal fibroblasts. The class given is cell-based. To be noted: 50 μM 1a alone or 5 nM camptothecin alone. From the text:
Cells were either labeled immediately before treatment (starting DNA synthesis rate), or subjected to the indicated treatments and then pulsed on successive days until day 4. DNA synthesis is represented as the percent of starting DNA synthesis rate.
The present inventors used a 96-well viability assays as described in Saadatmandi et al (Cancer Gene Therapy (2002) 9:930-9) to examine the effect of the spermidine-CoA inhibitor disclosed previously on DNA synthesis in normal GT41F human skin fibroblast cells, as well as its combined effect with camptothecin. GT41F cells were plated in 96-well plates at 3000 cells per well. […] Following the 6-hour labeling, cells were harvested and incorporation of [^3H]-thymidine was determined by scintillation counting.

The test system of data set [6] is γ-H2A.X in DU145 prostate cancer cells. As to the kind of experiment: γ-H2A.X immunofluorescence in DU145 cells. The class given is cell-based. Conditions: 5 nM camptothecin alone, 8 hours. The text has this:
The immunofluorescence images on the left and right sides of the middle scheme illustrate this visually. […] Cells were fixed and stained with a rabbit antibody to the histone variant, γ-H2A.X, a marker for DNA double stranded breaks, followed by staining with a fluorescein (FITC)-tagged goat anti rabbit secondary antibody. Nuclei were stained with Hoescht 33345.

The test system of data set [7] is DU145 prostate cancer cells. As to the kind of experiment: Viability assay, DU145. The class given is cell-based. Conditions: 5 nM camptothecin or 10 μM 2a. The protocol:
as §3

The subject of the next data set is BT20 TNBC cells. As to the kind of experiment: 3-day viability assay, BT20. The class given is cell-based. Conditions: 5 nM.
From the text: as §2
The effect of spd-2a on the BT20 breast cancer cell line derived form a spontaneous TNBC with wild-type BrCa1 was examined. […] Having previously established that spd-2a is a therapy sensitizer, the present inventors then examined the combined effects of spd-2a and camptothecin (the basis for the chemotherapeutic drug, Irinotecan).

In the case of `N.N.[Cl][Pt][Cl]` [cisplatin, cis-diamminedichloro-platinium], in the data set on γ-H2A.X in H358 cells, the “γ-H2A.X level, single agent” value is “weakly detectable”.

`COc1cccc2c1C(=O)c1c(O)c3c(c(O)c1C2=O)C[C@@](O)(C(=O)CO)C[C@@H]3O[C@H]1C[C@H](N)[C@H](O)[C@H](C)O1` [doxorubicin]: the “effect as single agent on viability” value (in the data set with MCF7 breast cancer cells; in data set [1]) was “minimal effects” each time.

As to `O=c1[nH]cc(F)c(=O)[nH]1` [5FU, 5-Fluorouracil], the “effect as single agent on viability” value (in the data set on MCF7 breast cancer cells; in [1]) was “minimal effects” in each case. Moreover, the “γ-H2A.X level, single agent” value in the data set on γ-H2A.X in H358 cells is “weakly detectable”.

As for `CC(C)(COP(=O)(O)OP(=O)(O)OC[C@H]1O[C@@H](n2cnc3c(N)ncnc32)[C@H](O)[C@@H]1OP(=O)(O)O)[C@@H](O)C(=O)NCCC(=O)NCCSCC(=O)NCCCCNCCCN` [1b, spermidine [N8]-CoA], the “suppression of 3 day cell viability” value in the data set on H358 lung cancer cells [2] was 60-70%. The “inhibitory activity against endogenous HAT activity, isomers compared” value in data set [3] was “comparable inhibitory activity”.

In the case of `CC[C@@]1(O)C(=O)OCc2c1cc1n(c2=O)Cc2cc3ccccc3nc2-1` [camptothecin], in the data set with H358 lung cancer cells [4], the “effect of camptothecin alone on [3H]-thymidine incorporation” value is on record as “no detectable effect”. Also, in the data set on MCF7 breast cancer cells (5 nM camptothecin alone, 18 hour), the “2-day cell viability relative to untreated cells” value is on record as “no effect”. In addition, the “γ-H2A.X level, single agent” value in the data set on γ-H2A.X in H358 cells is listed as “weakly detectable”. Moreover, the “effect on incorporation of [3H]-thymidine, single agent” value in data set [5] is on record as “virtually no effect”. Further, the “DNA damage (γ-H2A.X staining)” value in data set [6] is “minimal damage”. Moreover, the “effect of the dose on cell viability, single agent” value in data set [7] was “minimal effects on cell viability”. For the same compound, the “effect of camptothecin by itself” value in the data set on BT20 TNBC cells is listed as “no effect”.

Source of the values: patent US10617656B2, “Methods of increasing the cytotoxicity of chemotherapeutic agents with multisubstrate inhibitors of histone, protein-Lys, polyamine acetylation, and polyamine metabolism” (Vanderbilt University, priority 2010, dated 2020).
